Legend:
Format in all cases: cell-based, human
[1] = test system: MUC16-positive OVCAR3 ovarian cancer cells; assay: Viable cell number by trypan blue staining, OVCAR3 cells; conditions: OVCAR3, 5 microM, 5 days, vs control
Method: (§1) FIG. 1 illustrates the Effects of MUC16 Inhibitor Peptide (IP-16) on MUC16-positive cancer cells. Human MUC16-positive OVCAR3 ovarian cancer (A), MIAPACA2 pancreatic cancer (B) and ASPC1 pancreatic cancer (C) cells were left untreated (Control) or treated with 5 microM IP-16(RRRRRRRR-CLICGVLVTTRRRKK; SEQ ID NO:5) or CP-16 (RRRRRRRR-ALIAGVLVTTRRRKK; SEQ ID NO:6) for 5 days. Viable cell number was determined by trypan blue staining. The results are expressed as cell number (mean+SD of three determinations).
(§2) Viable cell number was determined by trypan blue staining.

[2] = test system: MUC16-negative HEK293T cells; assay: Growth of MUC16-negative control cells
[3] = test system: MUC16-positive ASPC1 pancreatic cancer cells; assay: Viable cell number by trypan blue staining, ASPC1 cells; conditions: ASPC1, 5 microM, 5 days, vs control
Method: as §1, §2

[4] = test system: MUC16-positive MIAPACA2 pancreatic cancer cells; assay: Viable cell number by trypan blue staining, MIAPACA2 cells; conditions: MIAPACA2, 5 microM, 5 days, vs control
Method: as §1, §2

RRRRRRRR-CLICGVLVTTRRRKK (RRRRRRRRCLICGVLVTTRRRKK) [IP-16]
cell number (viable cells) [1]: significantly reduced | effect on growth [2]: little, if any, effect | cell number (viable cells) [3]: significantly reduced | cell number (viable cells) [4]: significantly reduced

Source: patent US9663562B2, “Compositions and methods for treating cancer” (Dana-Farber Cancer Institute, Inc., priority 2013, dated 2017)
